Data from patent US20260165323A1, “USE OF STROBILURIN TYPE COMPOUNDS FOR COMBATING PHYTOPATHOGENIC FUNGI CONTAINING AN AMINO ACID SUBSTITUTION F129L IN THE MITOCHONDRIAL CYTOCHROME B PROTEIN CONFERRING RESISTANCE TO QO […]” (priority 2022, published 2026).

What was measured:
[1] = system: Drechslera teres (PYRNTE) containing the amino acid substitution F129L in the mitochondrial cytochrome b protein; assay: Use example 10: microtest, growth of Drechslera teres (PYRNTE) F129L; assay type: cell-based; settings: relative growth vs compound-free control (100%), 7 days; for Growth (%) PYRNTE F129L Use ex. 10: 125 ppm, Table 12
Procedure: (§1) The active compounds were formulated separately as a stock solution having a concentration of 10000 ppm in dimethyl sulfoxide. The stock solutions were mixed according to the ratio, pipetted onto a micro titer plate (MTP) and diluted with water to the stated concentrations. A spore suspension of one of the following fungal plant pathogens in aqueous bio malt solution • was then added for the respective use example: • Use example 5: Alternaria solani (ALTESO) • Use example 6: Botrytis cinerea (BOTRCI) • Use example 7: Cercospora sojina (CERCSO) • Use example 8: Colletotrichum orbiculare (COLLLA) • Use example 9: Leptosphaeria nodorum (LEPTNO) • Use example 10: Drechslera teres (PYRNTE) containing the amino acid substitution F129L in the mitochondrial cytochrome b protein conferring resistance to Qo inhibitors • Use example 11: Sclerotinia sclerotiorum (SCLESC), solute with ultrasonic from a filter membrane
(§2) The plates were placed in a water vapor-saturated chamber at a temperature of 18° C. Using an absorption photometer, the MTPs were measured at 405 nm 7 days after the inoculation.
(§3) The measured parameters were compared to the growth of the active compound-free control variant (100%) and the fungus-free blank value to determine the relative growth in % of the pathogens in the respective active compounds.

[2] = system: Leptosphaeria nodorum (LEPTNO); assay: Use example 9: microtest, growth of Leptosphaeria nodorum (LEPTNO); assay type: cell-based; settings: relative growth vs compound-free control (100%), 7 days, Table 10
Procedure: as §1, §2, §3

[3] = system: Cercospora sojina (CERCSO); assay: Use example 7: microtest, growth of Cercospora sojina (CERCSO); assay type: cell-based; settings: relative growth vs compound-free control (100%); for Growth (%) CERCSO Use ex. 7: 125 ppm, 7 days, Table 12; for Growth at 31 ppm (%) CERCSO Use ex. 7: 7 days after inoculation
Procedure: as §1, §2, §3

[4] = system: Phakopsora pachyrhizi containing the amino acid substitution F129L in the mitochondrial cytochrome b protein; assay: Use Example 1: protective control of soybean rust on soybeans (PHAKPA P2); assay type: in vivo; settings: inoculated 2 days after spraying, % diseased leaf area
Method in brief: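 Protective test: plants were inoculated with the F129L cytochrome b rust strain 2 days after spraying to run-off, then held 24 h humid (~95% RH, 20-24° C) and up to 14 days at 23-27° C, 60-80% RH. Readout was visually assessed percent diseased leaf area.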

[5] = system: Phakopsora pachyrhizi containing the amino acid substitution F129L in the mitochondrial cytochrome b protein; assay: Use Example 2: protective control of soybean rust on soybeans (PHAKPA P6); assay type: in vivo; settings: inoculated six days after spraying, % diseased leaf area
Method in brief: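 Disease was rated visually as % diseased leaf area up to 14 days after inoculation (23–27°C, 60–80% RH). Inoculum was P. pachyrhizi carrying cytochrome b F129L, followed by 24 h in a humid chamber (~95% RH). Inoculation came six days after protective spraying of seedlings with compound in acetone/DMSO–Wettol–water.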

Puccinia recondita [6] = assay: Use Example 3: curative control of brown rust on wheat (PUCCRT K4); assay type: in vivo; settings: % diseased leaf area
Method in brief: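 Wheat seedlings inoculated with Puccinia recondita spores, held 24 h at 95–99% RH, 20–24° C in dark, then 3 days in greenhouse before spraying to run-off (curative). Compound in acetone/DMSO–Wettol–water. After 5–7 further days at 20–24° C, 65–70% RH, % diseased leaf area scored visually.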

Puccinia recondita [7] = assay: Use Example 4: preventative control of brown rust on wheat (PUCCRT P7); assay type: in vivo; settings: inoculated seven days after spraying, % diseased leaf area
Method in brief: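 Preventative test: Puccinia recondita spores dusted onto wheat seedlings seven days after spraying their first two leaves to run-off with the formulated compound. After 24 h humid dark incubation at 20–24 °C and 9–11 days of greenhouse growth at 65–70% RH, infection rated visually as % diseased leaf area.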

| SMILES | Growth at 8 ppm (%) PYRNTE F129L Use ex. 10 [1] [%] | Growth at 125 ppm (%) LEPTNO Use ex. 9 [2] [%] | Growth (%) PYRNTE F129L Use ex. 10 [1] [%] | Growth (%) CERCSO Use ex. 7 [3] [%] | % PHAKPA (F129L) Disease level P2 at 4 ppm [4] [%] | % PHAKPA (F129L) Disease level P2 at 16 ppm [4] [%] | % PHAKPA (F129L) Disease level P6 at 4 ppm [5] [%] | % PHAKPA (F129L) Disease level P6 at 16 ppm [5] [%] | % PUCCRT Disease level K4 at 4 ppm (Puccinia recondita [6]) [%] | % PUCCRT Disease level K4 at 16 ppm (Puccinia recondita [6]) [%] | % PUCCRT Disease level P7 at 4 ppm (Puccinia recondita [7]) [%] | % PUCCRT Disease level P7 at 16 ppm (Puccinia recondita [7]) [%] | Growth at 31 ppm (%) CERCSO Use ex. 7 [3] [%] |
| --- | --- | --- | --- | --- | --- | --- | --- | --- | --- | --- | --- | --- | --- |
| CO/C=C(/C(=O)OC)c1cccc(C)c1CO/N=C(\COC)c1cccc(F)c1 [1.2-A-75, reference compound] | 34 |  |  |  |  |  |  |  |  |  |  |  |  |
| COC/C(=N\OCc1c(C)cccc1/C(=N\OC)C(=O)OC)c1ccc(F)cc1 [I.2-A-82, reference compound] |  | 19 |  |  |  |  |  |  |  |  |  |  |  |
| CNC(=O)/C(=N/OC)c1cccc(C)c1CO/N=C(\COC)c1ccc(Cl)cc1 [I.3-A-83, reference compound] |  |  | 26 | 89 |  |  |  |  |  |  |  |  |  |
| CO/C=C(/C(=O)OC)c1cccc(Br)c1CO/N=C(\COC)c1ccc(F)cc1 [compound 10, Methyl-(E)-2-[3-bromo-2-[[(Z)-[1-(4-fluorophenyl)-2-methoxy-ethylidene]amino]oxymethyl]phenyl]-3-methoxy-prop-2-enoate] |  | 3 |  |  | 4 | 0 | 8 | 0 | 13 | 2 | 10 | 2 |  |
| CO/C=C(/C(=O)OC)c1cccc(Cl)c1CO/N=C(\COC)c1cccc(F)c1 [compound 14, Methyl-(E)-2-[3-chloro-2-[[(Z)-[1-(3-fluorophenyl)-2-methoxy-ethylidene]amino]oxymethyl]phenyl]-3-methoxy-prop-2-enoate] | 3 |  |  |  | 3 | 0 | 2 | 0 | 22 | 1 | 13 | 2 |  |
| CNC(=O)/C(=N/OC)c1cccc(Cl)c1CO/N=C(\COC)c1ccc(Cl)cc1 [compound 36] |  |  | 2 | 12 | 65 | 3 | 57 | 10 | 82 | 2 | 6 | 0 |  |
| COC/C(=N\OCc1c(Cl)cccc1/C(=N\OC)C(=O)OC)c1cccc(Cl)c1 [compound 37] |  |  |  |  | 67 | 18 | 72 | 39 | 75 | 72 | 40 | 5 | 40 |
| CNC(=O)/C(=N/OC)c1cccc(Cl)c1CO/N=C(\COC)c1ccc(Cl)c(F)c1 [compound 109] |  |  |  |  | 13 | 2 | 37 | 4 | 63 | 4 | 5 | 0 |  |
| CO/C=C(/C(=O)OC)c1cccc(Cl)c1CO/N=C(\COC)c1ccc(Cl)c(F)c1 [compound 110] |  |  |  |  | 1 | 0 | 15 | 0 | 70 | 4 | 41 | 3 |  |
| CO/C=C(/C(=O)OC)c1cccc(Cl)c1CO/N=C(\COC)c1c(F)ccc(F)c1F [compound 113] |  |  |  |  | 1 | 0 | 10 | 1 | 77 | 13 | 70 | 10 |  |
| CO/C=C(/C(=O)OC)c1cccc(Cl)c1CO/N=C(\COC)c1cccc(C#N)c1 [compound 116] |  |  |  |  | 31 | 3 | 48 | 11 | 5 | 0 | 15 | 3 |  |
| CNC(=O)/C(=N/OC)c1cccc(Cl)c1CO/N=C(\COC)c1cccc(C#N)c1 [compound 117] |  |  |  |  | 59 | 5 | 34 | 8 | 18 | 0 | 14 | 1 |  |
| CNC(=O)/C(=N/OC)c1cccc(Cl)c1CO/N=C(\COC)c1cccc(OC)c1 [compound 119] |  |  |  |  | 32 | 0 | 36 | 5 | 42 | 2 | 13 | 1 |  |
| CO/C=C(/C(=O)OC)c1cccc(Cl)c1CO/N=C(\COC)c1cccc(OC)c1 [compound 121] |  |  |  |  | 4 | 0 | 6 | 0 | 5 | 1 | 32 | 4 |  |
| CO/C=C(/C(=O)OC)c1cccc(Cl)c1CO/N=C(\COC)c1ccccc1C [compound 123] |  |  |  |  | 41 | 2 | 38 | 7 | 72 | 21 | 77 | 33 |  |
| CO/C=C(/C(=O)OC)c1cccc(Cl)c1CO/N=C(\COC)c1ccccn1 [compound 129, Methyl (E)-2-[3-chloro-2-[[(Z)-[2-methoxy-1-(2-pyridyl)ethylidene]amino]oxymethyl]phenyl]-3-methoxy-prop-2-enoate] |  |  |  |  | 1 | 0 | 4 | 1 | 11 | 1 |  | 18 |  |
| CO/C=C(/C(=O)OC)c1cccc(Cl)c1CO/N=C(\COC)c1ccc(F)cn1 [compound 131, Methyl (E)-2-[3-chloro-2-[[(Z)-[1-(5-fluoro-2-pyridyl)-2-methoxy-ethylidene]amino]oxymethyl]phenyl]-3-methoxy-prop-2-enoate] |  |  |  |  | 1 | 0 | 1 | 0 | 2 | 0 | 32 | 1 |  |
| COC/C(=N\OCc1c(C)cccc1/C(=N\OC)C(=O)OC)c1cccc(Cl)c1 [reference compound] |  |  |  |  |  |  |  |  |  |  |  |  | 60 |
